Holding throughout (experiment): MIC, standard agar-dilution assay
Type in all cases: cell-based

The test system of test [1] is Staphylococcus aureus X1.1. The following applies: Staphylococcus aureus X1.1; agar dilution; read-out: MIC. The procedure: (§1) The MIC's in Table II were determined by standard agar-dilution assays. The MIC's in Table III were obtained using conventional broth-dilution microtiter tests.
(In general: Agar dilution tests growth on a series of plates holding different concentrations.)

The subject of test [2] is Haemophilus influenzae C.L. The following applies: Haemophilus influenzae C.L.; Ampicillin-sensitive strain; agar dilution; read-out: MIC. How it is done: as §1
Test [3] concerns Pseudomonas aeruginosa X239. The following applies: Pseudomonas aeruginosa X239; agar dilution; read-out: MIC. How it is done:
as §1

Test [4] relates to Staphylococcus aureus S13E. How it is done:
as §1

Test [5] deals with Staphylococcus aureus X400. Conditions: Staphylococcus aureus X400; Methicillin-resistant strain; agar dilution; read-out: MIC. The procedure: as §1
In test [6] the test system is Staphylococcus aureus V41. The following applies: Staphylococcus aureus V41; Penicillin-resistant strain; agar dilution; read-out: MIC. The procedure: as §1
In test [7] the test system is Streptococcus pyogenes C203. Conditions: Streptococcus pyogenes C203; agar dilution; read-out: MIC. The procedure:
as §1

For test [8], the system named is Streptococcus faecalis X66. Conditions: Enterococcus faecalis; Streptococcus faecalis X66; agar dilution; read-out: MIC. How it is done:
as §1

Test [9] deals with Klebsiella pneumoniae X68. How it is done:
as §1

Test [10] relates to Staphylococcus epidermidis EPI1. The following applies: Staphylococcus epidermidis EPI1; agar dilution; read-out: MIC. How it is done:
as §1

Test [11] deals with Haemophilus influenzae 76. The following applies: Haemophilus influenzae 76; Ampicillin-resistant strain; agar dilution; read-out: MIC. The procedure:
as §1

The subject of test [12] is Streptococcus faecalis 2041. The following applies: Enterococcus faecalis; Streptococcus faecalis 2041; agar dilution; read-out: MIC. How it is done:
as §1

The test system of a further test is Escherichia coli EC14. Conditions: Escherichia coli EC14; agar dilution; read-out: MIC. The procedure:
as §1

Test [13] relates to Streptococcus pneumoniae Park I. Conditions: Streptococcus pneumoniae Park I; agar dilution; read-out: MIC. How it is done: as §1
The subject of test [14] is Staphylococcus epidermidis 222. The following applies: Staphylococcus epidermidis 222; agar dilution; read-out: MIC. How it is done:
as §1

The source of these data is patent EP0262903A2, “New acyl derivatives of 20-modified tylosin and desmycosin compounds” (priority 1986, dated 1988).

≈ marks a conversion by molar mass, not a printed value. Read-outs that look alike come from different tables or passages of the source.

Consider `CCC1OC(=O)CC(O)C(C)C(OC2OC(C)C(OC(C)=O)C(N(C)C)C2OC(C)=O)C(CCOc2ccccc2)CC(C)C(=O)C=CC(C)=CC1COC1OC(C)C(OC(C)=O)C(OC)C1OC` (stereo not drawn) [Compound 1, 2ʹ,4ʹ,4ʹʹ-Tri-O-acetyl-20-DH-20-O-phenyl-desmycosin], for which the MIC in test [1] is 4 µg/mL (≈ 4.1 µM); in test [2], over 128 µg/mL; in test [3], over 128 µg/mL; in test [4], 4 µg/mL (≈ 4.1 µM); in [5] it was 4 µg/mL (≈ 4.1 µM); in test [6] it was 2 µg/mL (≈ 2.05 µM). The MIC is 1 µg/mL (≈ 1.02 µM) in [7]; 64 µg/mL (≈ 65.6 µM) in [8]; over 128 µg/mL in test [9] (Klebsiella pneumoniae, X68); 4 µg/mL (≈ 4.1 µM) in test [10]; over 128 µg/mL in [11]; 128 µg/mL (≈ 131 µM) in test [12]. Further, the MIC in the test on Escherichia coli EC14 was over 128 µg/mL; in test [13], 8 µg/mL (≈ 8.2 µM); in [14], 1 µg/mL (≈ 1.02 µM).

In the case of `CCC(C)CN(CC)CCC1CC(C)C(=O)C=CC(C)=CC(COC2OC(C)C(OC(C)=O)C(OC)C2OC)C(CC)OC(=O)CC(O)C(C)C1OC1OC(C)C(O)C(N(C)C)C1O` (stereo not drawn) [Compound 17, 4ʹʹ-O-Acetyl-20-DH-20-deoxy-20-[N-ethyl-N-(2-methylbutyl)amino]desmycosin], the MIC in test [1] was 8 µg/mL (≈ 8.76 µM); in test [2], 64 µg/mL (≈ 70.1 µM); in [3] it was over 128 µg/mL; in [4], 8 µg/mL (≈ 8.76 µM); in test [5] it was 4 µg/mL (≈ 4.38 µM); in test [6] it was 8 µg/mL (≈ 8.76 µM). Further, the MIC in [7] was 4 µg/mL (≈ 4.38 µM); in test [8], 64 µg/mL (≈ 70.1 µM); in test [9] (Klebsiella pneumoniae X68, agar dilution, read-out: MIC), over 128 µg/mL; in test [10], 8 µg/mL (≈ 8.76 µM); in [11], 128 µg/mL (≈ 140 µM); in test [12] it was 64 µg/mL (≈ 70.1 µM). The MIC with Escherichia coli EC14 was over 128 µg/mL; in test [13], 4 µg/mL (≈ 4.38 µM); in test [14] it was 4 µg/mL (≈ 4.38 µM).

Consider `CCC1OC(=O)CC(O)C(C)C(OC2OC(C)C(OC(C)=O)C(N(C)C)C2OC(C)=O)C(CCOc2ccccc2)CC(C)C(=O)C=CC(C)=CC1COC1OC(C)C(OC(=O)CCl)C(OC)C1OC` (stereo not drawn) [Compound 8, 2ʹ,4ʹ-Di-O-acetyl-4ʹʹ-O-(chloroacetyl)-20-DH-20-O-phenyl-desmycosin], for which the MIC was 2 µg/mL (≈ 1.98 µM) in test [1]; over 128 µg/mL in [2]; over 128 µg/mL in test [3]; 2 µg/mL (≈ 1.98 µM) in test [4]; 2 µg/mL (≈ 1.98 µM) in test [5]; 2 µg/mL (≈ 1.98 µM) in test [6]. In addition, the MIC is 2 µg/mL (≈ 1.98 µM) in test [7]; 32 µg/mL (≈ 31.7 µM) in test [8]; over 128 µg/mL in test [9] (Klebsiella pneumoniae, X68); 2 µg/mL (≈ 1.98 µM) in [10]; over 128 µg/mL in test [11]; 128 µg/mL (≈ 127 µM) in [12]. Besides, the figures for the MIC (in the test on Escherichia coli EC14; in test [13]; in test [14]) were over 128 µg/mL, 8 µg/mL (≈ 7.92 µM) and 2 µg/mL (≈ 1.98 µM), respectively.

For `CCC1OC(=O)CC(O)C(C)C(OC2OC(C)C(O)C(N(C)C)C2O)C(CCN2CC(C)CC(C)C2)CC(C)C(=O)C=CC(C)=CC1COC1OC(C)C(OC(C)=O)C(OC)C1OC` (stereo not drawn) [Compound 19, 4ʹʹ-O-Acetyl-20-DH-20-deoxy-20-(3,5-dimethylpiperidin-1-yl)-desmycosin], the MIC in test [1] was 2 µg/mL (≈ 2.19 µM); in test [2], 32 µg/mL (≈ 35.1 µM); in [3], over 128 µg/mL; in [4], 1 µg/mL (≈ 1.1 µM); in test [5], 1 µg/mL (≈ 1.1 µM); in test [6], 1 µg/mL (≈ 1.1 µM). Further, the MIC in test [7] was 0.125 µg/mL (≈ 0.137 µM); in [8], 8 µg/mL (≈ 8.78 µM); in test [9] (Klebsiella pneumoniae, X68) it was over 128 µg/mL; in [10], 1 µg/mL (≈ 1.1 µM); in [11], 64 µg/mL (≈ 70.2 µM); in test [12] it was 8 µg/mL (≈ 8.78 µM). The MIC in the test with Escherichia coli EC14 was over 128 µg/mL; in test [13] it was 0.125 µg/mL (≈ 0.137 µM); in test [14], 1 µg/mL (≈ 1.1 µM).
